Assay results as given in PubChem BioAssay (NCI).
Values joined by “and” are separate entries in the source; they are usually repeats but may differ in a detail not shown here. Equal entries are not always repeated.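 Tested at 5 concentrations; 48 h exposure; 96-well plates; endpoints linearly interpolated, else capped at highest concentration. GI50: concentration for 50% inhibition of growth. Definition used: TGI = concentration required for complete inhibition of growth.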

How the values were obtained:
Assay in all cases: inhibition of tumour cell growth, NCI panel, 48 h
SK-MEL-2 melanoma = tested on: SK-MEL-2 melanoma
SK-OV-3 ovarian = tested on: SK-OV-3 ovarian
UACC-257 melanoma = tested on: UACC-257 melanoma
RPMI-8226 leukemia = tested on: RPMI-8226 leukemia
DLD-1 colon = tested on: DLD-1 colon
UO-31 renal = tested on: UO-31 renal
OVCAR-8 ovarian = tested on: OVCAR-8 ovarian
KM20L2 colon = tested on: KM20L2 colon
COLO 205 colon = tested on: COLO 205 colon
HS 578T breast = tested on: HS 578T breast

Structure (SMILES)	TGI (SK-MEL-2 melanoma)	TGI (SK-OV-3 ovarian)	TGI (UACC-257 melanoma)	TGI (RPMI-8226 leukemia)	TGI (DLD-1 colon)	TGI (UO-31 renal)	TGI (OVCAR-8 ovarian)	TGI (KM20L2 colon)	TGI (COLO 205 colon)	GI50 (SK-MEL-2 melanoma)	GI50 (SK-OV-3 ovarian)	GI50 (UACC-257 melanoma)	GI50 (RPMI-8226 leukemia)	GI50 (UO-31 renal)	GI50 (HS 578T breast)	TGI (HS 578T breast)	GI50 (OVCAR-8 ovarian)	GI50 (KM20L2 colon)	GI50 (COLO 205 colon)
CC1(Cl)C(=O)NC(=O)N([C@H]2C[C@H](O)[C@@H](CO)O2)C1N=[N+]=[N-] (stereo partly specified)	> 100 µM	> 100 µM	> 100 µM	> 100 µM	> 100 µM	> 100 µM	> 100 µM	> 100 µM	> 100 µM	–	–	–	–	–	–	–	–	–	–
COc1ccc(-c2cc(=O)c3c(O)c(O)c(OC)cc3o2)cc1O	> 100 µM	> 100 µM	> 100 µM	> 100 µM	> 100 µM	> 100 µM	> 100 µM	> 100 µM	> 100 µM	–	–	–	–	–	–	–	–	–	–
O=C(NCCCN1CCN(CCCNC(=O)c2cccc3ccccc23)CC1)c1cccc2ccccc12	> 100 µM	57.6 µM	> 100 µM	> 100 µM	–	> 100 µM	> 100 µM	73.5 µM	> 100 µM	–	–	–	–	–	–	–	–	–	–
Cc1cc(NS(=O)(=O)c2ccc(NC(=O)c3ccc(Cl)c4c(Nc5ccc(S(=O)(=O)Nc6cc(C)on6)cc5)c5ccccc5nc34)cc2)no1	50.5 µM	42.2 µM	43.5 µM	72.7 µM	–	37.1 µM	> 100 µM	40 µM	41.4 µM	–	–	–	–	–	–	–	–	–	–
CCC/C=C/C=C/C(=O)OC1/C(=C/C(=O)OC)CC2CC(C(C)O)OC(=O)CC(O)CC3CC(OC(C)=O)C(C)(C)C(O)(CC4C/C(=C/C(=O)OC)CC(/C=C/C(C)(C)C1(O)O2)O4)O3 (stereo unspecified)	> 10.9 µM and 11 µM and > 12.5 µM	> 10.9 µM and 11 µM and > 12.5 µM	6.42 µM and 11 µM and > 12.5 µM	> 10.9 µM and 11 µM and > 12.5 µM	> 10.9 µM and 11 µM	> 10.9 µM and 5.23 µM and > 12.5 µM	> 10.9 µM and 11 µM and > 12.5 µM	> 10.9 µM and 11 µM	6.88 µM and 11 µM and > 12.5 µM	> 10.9 µM and 5.77 µM and > 12.5 µM	> 10.9 µM and 8.51 µM and > 12.5 µM	5.13 µM and 8.15 µM and > 12.5 µM	8.95 µM and > 12.5 µM	> 10.9 µM and 2.48 µM and > 12.5 µM	> 12.5 µM	10.8 µM and > 12.5 µM	> 10.9 µM and 7.33 µM and > 12.5 µM	> 10.9 µM and 6.51 µM	–
CC1=CC(=O)NP(=O)(Oc2ccc(Cl)cc2)N1 (stereo unspecified)	> 100 µM	> 100 µM	> 100 µM	> 100 µM	> 100 µM	> 100 µM	> 100 µM	> 100 µM	> 100 µM	–	–	–	–	–	–	–	–	–	–
CCCCC[C@@H]1CCCC2NC(CCCCCO[Si](c3ccccc3)(c3ccccc3)C(C)(C)C)CCC21 (stereo partly specified)	31 µM	36.8 µM	29 µM	22.2 µM	28.1 µM	26.6 µM	32.7 µM	23.8 µM	–	–	–	–	–	–	–	–	–	–	–
COCN1COCN(C)C1=O	> 100 µM	> 100 µM	> 100 µM	> 100 µM	> 100 µM	> 100 µM	> 100 µM	> 100 µM	> 100 µM	–	–	–	–	–	–	–	–	–	–
O=C1c2ccccc2C(=O)c2c1ccc1conc21	7.14 µM	13.3 µM	4.37 µM	3.85 µM	7.15 µM	9.53 µM	4.21 µM	28.8 µM	12.3 µM	–	–	–	–	–	–	38.6 µM	–	–	–
CC(=O)CC[N+](C)(C)C	64.4 µM	51.9 µM	54.6 µM	26 µM	35.4 µM	67.8 µM	67.5 µM	> 56.6 µM	17.5 µM	–	–	–	–	–	–	> 39.3 µM	–	–	–
COc1ccccc1/C=C1\C(=O)N(C(=O)Cc2ccccc2)N=C1C	> 100 µM	–	> 100 µM	> 100 µM	> 100 µM	> 100 µM	> 100 µM	–	> 100 µM	–	–	–	–	–	–	–	–	–	–
C=CCCC(O)c1cc(C)c(O)c(C)c1 (stereo unspecified)	> 100 µM	> 100 µM	> 100 µM	> 100 µM	–	> 100 µM	> 100 µM	> 100 µM	> 100 µM	–	–	–	–	–	–	–	–	–	–
O=[N+]([O-])c1ccccc1/C=N\NC(=S)N/N=C/c1ccccc1[N+](=O)[O-]	> 100 µM	> 100 µM	> 100 µM	> 100 µM	–	87.3 µM	> 100 µM	–	> 100 µM	6.41 µM	6.07 µM	10.3 µM	5.91 µM	5.66 µM	3.61 µM	33.6 µM	11.9 µM	–	11.3 µM
Cn1c(=O)nc2n(-c3ccc(Br)cc3)c3ccccc3nc-2c1=O	28.5 µM	> 100 µM	6.79 µM	28.8 µM	36.3 µM	37.9 µM	18.3 µM	8.74 µM	11.1 µM	–	–	–	–	–	–	–	–	–	–
COC1CCCc2c(OC(C)=O)ccc(OC(C)=O)c21 (stereo unspecified)	> 100 µM	> 100 µM	–	–	–	> 100 µM	–	> 100 µM	–	–	–	–	–	–	–	–	–	–	–
O=c1[nH]c2nc3ccccc3c(=O)n2nc1Cc1ccccc1	> 100 µM	> 100 µM	> 100 µM	> 100 µM	> 100 µM	> 100 µM	> 100 µM	> 100 µM	> 100 µM	–	–	–	–	–	–	–	–	–	–
N#CN1CC[C@@H]2CC3(CCC2C1)OCCO3 (stereo partly specified)	> 100 µM	> 100 µM	> 100 µM	> 100 µM	> 100 µM	> 100 µM	> 100 µM	> 100 µM	> 100 µM	–	–	–	–	–	–	–	–	–	–
Cc1nc(-n2nc(-c3ccccc3)cc2-c2ccccc2)sc1C(=O)CC(=O)C(=O)Nc1ccc(Cl)c(Cl)c1	> 100 µM	> 100 µM	> 100 µM	> 100 µM	> 100 µM	> 100 µM	> 100 µM	> 100 µM	> 100 µM	–	–	–	–	–	–	–	–	–	–
CC(C)(C)OC(=O)NCCCCCCCCCn1c2c(c3ccccc3c1=O)C(=O)c1ccccc1-2	71.1 µM	78.3 µM	> 100 µM	> 100 µM	–	> 100 µM	> 100 µM	–	> 100 µM	27.9 µM	23.6 µM	> 100 µM	> 100 µM	> 100 µM	14.2 µM	43.6 µM	56.1 µM	–	> 100 µM
O=C(CSSCC(=O)c1ccc(Cl)cc1)c1ccc(Cl)cc1	15.1 µM	22.4 µM	34.4 µM	12.3 µM	–	17.5 µM	23.2 µM	–	29.8 µM	3.8 µM	4.34 µM	5.18 µM	3.2 µM	3.48 µM	7.51 µM	> 100 µM	5.06 µM	–	14.2 µM
